experiment: recombinant UMI read abundance after kanamycin selection (control-corrected) (log10(CPM+1)); higher = more efficient recombination; extreme values may be limits of the assay; sequences stand for … in AGTGCAGAGAAAATCGGCCAGTTTTCTCTGCCTGCAGTCCGCATGCCGTGGGACCCCTTGGGTTCTAACCTGTTGCCTAGATTTATGCAGCGGACTGCCTTTCTCCCAAAGTGATAAACCGG…AGGTTGGTTTCACT; site = the 11-nt donor
Method in brief: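 In a pooled Escherichia coli screen for the IS621 bridge recombinase, donor and donor-binding-loop pairs were each placed with a 12-nt UMI on a plasmid bearing a promoterless kanamycin gene. This library was co-electroporated with a target plasmid encoding a fixed target and T7-inducible recombinase, and cells were plated either on IPTG (0.07 mM) plus kanamycin or without selection, in two replicates each. Recombinant UMIs were PCR-amplified across the donor–target junction and sequenced, and counts were converted to CPM, averaged over replicates, scaled by control-derived factors and reported as log10(CPM+1).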

In order of rising “recombinant UMI read abundance (log10)” value:
1. GAGTCCTCATGGACCGGTTTTCCCGGTAATCCGTATTTGCC (site GAGTCCTCTGG)  0
2. TCTAGATCATGGACCGGTTTTCCCGGTAATCCGTATTTGCA (site TCTAGATCTTG)  0
3. CCAACTTCATGGACCGGTTTTCCCGGTAATCCGTATTTGAT (site CCAACTTCTAT)  0
4. CGTCTTTCATGGACCGGTTTTCCCGGTAATCCGTATTTGCA (site CGTCTTTCTTG)  0
5. GACTAACCATGGACCGGTTTTCCCGGTAATCCGTATTTGGT (site GACTAACCTAC)  0
6. CCACATCCATGGACCGGTTTTCCCGGTAATCCGTATTTGAC (site TCACATCCTGT)  0
7. CCTAATACATGGACCGGTTTTCCCGGTAATCCGTATTTGCC (site CCTAATACTGA)  0
8. TCGAATTCATGGACCGGTTTTCCCGGTAATCCGTATTTGCC (site TCAAATTCTGG)  0
9. GCTAGAACATGGACCGGTTTTCCCGGTAATCCGTATTTGGC (site GATAGAACTGC)  0
10. TTGCTGGCATGGACCGGTTTTCCCGGTAATCCGTATTTGAG (site TTGCTGGCTCT)  0
11. GGATGGCCATGGACCGGTTTTCCCGGTAATCCGTATTTGCA (site GAATGGCCTTG)  0
12. CCCGGTCCATGGACCGGTTTTCCCGGTAATCCGTATTTGCA (site GCCGGTCCTTG)  0
13. CCGTGAGCATGGACCGGTTTTCCCGGTAATCCGTATTTGTG (site CCGTCAGCTCA)  0
14. TACCTGACATGGACCGGTTTTCCCGGTAATCCGTATTTGCT (site TACGTGACTAG)  0
15. CCTTTGGCATGGACCGGTTTTCCCGGTAATCCGTATTTGCT (site CGTTTGGCTAG)  0
16. CAATTACCATGGACCGGTTTTCCCGGTAATCCGTATTTGCT (site CAATTACCTAG)  0
17. TGAACACCATGGACCGGTTTTCCCGGTAATCCGTATTTGAC (site TGAACACCTGT)  0
18. TGGAATCCATGGACCGGTTTTCCCGGTAATCCGTATTTGTT (site AGGAATCCTAA)  0
19. CGGACATCATGGACCGGTTTTCCCGGTAATCCGTATTTGAT (site CGGACATCTAG)  0
20. GGCCCAACATGGACCGGTTTTCCCGGTAATCCGTATTTGTA (site GGGCCAACTTA)  0
21. CCCAAAGCATGGACCGGTTTTCCCGGTAATCCGTATTTGAT (site CCAAAAGCTAT)  0
22. CACGGGCCATGGACCGGTTTTCCCGGTAATCCGTATTTGTT (site CACGGACCTAA)  0
23. GGTCCAGCATGGACCGGTTTTCCCGGTAATCCGTATTTGTA (site GGTCCACCTTA)  0.00451
24. GGTCCAACATGGACCGGTTTTCCCGGTAATCCGTATTTGGA (site GGTCCAACTTT)  0.00506
25. TAGGCCGCATGGACCGGTTTTCCCGGTAATCCGTATTTGTG (site CCATTGACTTT)  0.00523
26. CGTTTGACATGGACCGGTTTTCCCGGTAATCCGTATTTGAG (site CGTTAGACTCT)  0.00643
27. GTGGAGCCATGGACCGGTTTTCCCGGTAATCCGTATTTGTG (site GTGGAGGCTCA)  0.00706
28. GACGGCCCATGGACCGGTTTTCCCGGTAATCCGTATTTGTT (site AACGGCCCTAA)  0.00882
29. CATTATGCATGGACCGGTTTTCCCGGTAATCCGTATTTGGA (site GATTATGCTTC)  0.00887
30. AGAACAACATGGACCGGTTTTCCCGGTAATCCGTATTTGCT (site TTTGTCCCTCC)  0.00956
31. CCCGGTCCATGGACCGGTTTTCCCGGTAATCCGTATTTGCA (site CCGGGTCCTTG)  0.00973
32. CGAGGACCATGGACCGGTTTTCCCGGTAATCCGTATTTGGG (site CGAGGACCTCC)  0.0104
33. CTCCAAGCATGGACCGGTTTTCCCGGTAATCCGTATTTGAG (site ATCCAAGCTCT)  0.0148
34. AACCGTCCATGGACCGGTTTTCCCGGTAATCCGTATTTGAA (site AACCGTCCTCT)  0.0191
35. CACTTGGCATGGACCGGTTTTCCCGGTAATCCGTATTTGGG (site CACTTGGCTAC)  0.0307
36. GGTACGTCATGGACCGGTTTTCCCGGTAATCCGTATTTGTT (site TGTACGTCTAA)  0.0329
37. TCCATAGCATGGACCGGTTTTCCCGGTAATCCGTATTTGTA (site TCCATAGCTTA)  0.0478
38. CGATCGACATGGACCGGTTTTCCCGGTAATCCGTATTTGTT (site CGATCAACTAA)  0.0776
39. CAGTCGACATGGACCGGTTTTCCCGGTAATCCGTATTTGGG (site CAGACGACTCC)  0.083
40. CCGACCTCATGGACCGGTTTTCCCGGTAATCCGTATTTGGT (site CCGACCTCTAC)  0.121
41. GGTTAAACATGGACCGGTTTTCCCGGTAATCCGTATTTGGT (site GGTTAAACTAC)  0.137
42. ACACCTACATGGACCGGTTTTCCCGGTAATCCGTATTTGTG (site ACACCTACTCA)  0.165
43. AAGCGCGCATGGACCGGTTTTCCCGGTAATCCGTATTTGGG (site AAGCGCGCTCC)  0.214
44. CGGTCATCATGGACCGGTTTTCCCGGTAATCCGTATTTGCT (site CGTTCATCTAG)  0.224
45. CTACGCCCATGGACCGGTTTTCCCGGTAATCCGTATTTGTG (site CTACGCCCTCA)  0.232
46. GCGAAGGCATGGACCGGTTTTCCCGGTAATCCGTATTTGGG (site GCGAAGACTCC)  0.255
47. ACTAGTGCATGGACCGGTTTTCCCGGTAATCCGTATTTGGT (site GCTAGTGCTAC)  0.338
48. GCCACCGCATGGACCGGTTTTCCCGGTAATCCGTATTTGCG (site ACCACCGCTCG)  0.439
49. CTTGACACATGGACCGGTTTTCCCGGTAATCCGTATTTGAC (site CTTGACACTGT)  0.445
50. CAAGTAACATGGACCGGTTTTCCCGGTAATCCGTATTTGAC (site CTAGTATCTGT)  0.497
51. AATTATTCATGGACCGGTTTTCCCGGTAATCCGTATTTGGA (site AATTATACTTC)  0.554
52. GAGCACACATGGACCGGTTTTCCCGGTAATCCGTATTTGGA (site GAGCACACTTC)  0.594
53. CATTAGACATGGACCGGTTTTCCCGGTAATCCGTATTTGAG (site CCTTAGACTCT)  0.769
54. CTCTACACATGGACCGGTTTTCCCGGTAATCCGTATTTGCT (site CTATACACTAG)  0.775
55. GCAGTATCATGGACCGGTTTTCCCGGTAATCCGTATTTGGA (site ACAGTATCTTG)  0.785
56. GGATCATCATGGACCGGTTTTCCCGGTAATCCGTATTTGTG (site GGATCATCTCA)  0.926
57. TTGGAATCATGGACCGGTTTTCCCGGTAATCCGTATTTGCG (site TCGGAATCTCG)  0.968
58. ACTAGTGCATGGACCGGTTTTCCCGGTAATCCGTATTTGGT (site ACTATTGCTAC)  0.975
59. ACATCTACATGGACCGGTTTTCCCGGTAATCCGTATTTGTA (site ACATCTACTTA)  0.989
60. TCGGAATCATGGACCGGTTTTCCCGGTAATCCGTATTTGCG (site TTGGAATCTCG)  1.03
61. GGATCGACATGGACCGGTTTTCCCGGTAATCCGTATTTGCC (site GGATCGACTGG)  1.28
62. CACATATCATGGACCGGTTTTCCCGGTAATCCGTATTTGTC (site CACATATCTGA)  1.5
63. ACATTGGCATGGACCGGTTTTCCCGGTAATCCGTATTTGTT (site ACATTGGCTAA)  1.53
64. ACTTCTGCATGGACCGGTTTTCCCGGTAATCCGTATTTGCC (site ACTTCTGCTGG)  1.76
65. CTAGAGGCATGGACCGGTTTTCCCGGTAATCCGTATTTGTT (site CTAGAGGCTAA)  1.82
66. CTCCCTACATGGACCGGTTTTCCCGGTAATCCGTATTTGAC (site CTCCCTACTGT)  1.88
67. CAACTAACATGGACCGGTTTTCCCGGTAATCCGTATTTGGA (site CAACTAACTTC)  1.93
68. AAGGGCTCATGGACCGGTTTTCCCGGTAATCCGTATTTGGA (site AAGGGCTCTTC)  1.96
69. AAGGTAACATGGACCGGTTTTCCCGGTAATCCGTATTTGCT (site AAAGTAACTAG)  2.59
70. ACGTAGGCATGGACCGGTTTTCCCGGTAATCCGTATTTGGC (site ACGTAGGCTGC)  2.6
71. CAAAGGGCATGGACCGGTTTTCCCGGTAATCCGTATTTGAC (site CAAAGGGCTGT)  2.62
72. TAGGAATCATGGACCGGTTTTCCCGGTAATCCGTATTTGTG (site TAGGAATCTCG)  2.63
73. ATGGGCTCATGGACCGGTTTTCCCGGTAATCCGTATTTGTC (site ATGGGCTCTGA)  2.97
74. ACAAAGACATGGACCGGTTTTCCCGGTAATCCGTATTTGCA (site ACAAAGACTTG)  3.1
75. CAGACCGCATGGACCGGTTTTCCCGGTAATCCGTATTTGTC (site CAGACCGCTGA)  3.23

— the supplement of paper PMC11208160
